pEC50, pIC50: −log10 of the molar value. Where two headings read alike, the source gives them in different places.
Legend:
[1] = molecular target: IRAK4 enzyme (Homo sapiens (Human), UniProt Q9NWZ3); assay: biochemical; format: biochemical
[2] = system: TNFα; assay: cells; format: cell-based, human; details: read-out: EC50 TNF
[3] = IRAK4 enzyme, TR-FRET, 500 μM ATP
[4] = Homo sapiens, Monocyte, LPS-stimulated human monocytes, TNFα content
[5] = IRAK4 enzyme, TR-FRET (HTRF), 500 μM ATP
[6] = Homo sapiens, Monocyte, LPS-stimulated human monocytes, TNFα by TR-FRET

Sequence of IRAK4 enzyme (Q9NWZ3 whole entry): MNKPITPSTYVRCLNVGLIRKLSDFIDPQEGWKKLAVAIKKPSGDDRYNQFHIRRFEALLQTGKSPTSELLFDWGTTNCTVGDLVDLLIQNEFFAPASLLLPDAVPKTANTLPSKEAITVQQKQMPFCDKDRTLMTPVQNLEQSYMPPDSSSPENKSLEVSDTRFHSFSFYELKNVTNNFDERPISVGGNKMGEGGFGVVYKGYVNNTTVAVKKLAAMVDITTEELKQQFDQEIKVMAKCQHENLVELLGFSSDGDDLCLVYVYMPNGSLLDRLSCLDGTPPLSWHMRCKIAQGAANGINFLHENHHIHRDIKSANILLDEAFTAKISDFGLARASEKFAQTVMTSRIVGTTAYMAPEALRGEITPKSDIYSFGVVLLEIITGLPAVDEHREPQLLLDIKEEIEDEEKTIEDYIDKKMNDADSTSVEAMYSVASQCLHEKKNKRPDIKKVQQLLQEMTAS

| Compound | pIC50 [1, 3] | pEC50 [2, 4] | pIC50 [1, 5] | further results |
| --- | --- | --- | --- | --- |
| CC(=O)N[C@H]1CC[C@H](Nc2cc(-c3ccc4cc(C#N)cnn34)ncc2C(=O)NC[C@@H](F)C(C)(C)O)CC1 [Example 326, 4-(((1r,4R)-4-acetamidocyclohexyl)amino)-6-(3-cyanopyrrolo[1,2-b]pyridazin-7-yl)-N-((R)-2-fluoro-3-hydroxy-3-methylbutyl)nicotinamide] | – | – | – | pIC50 [1]: > 9.00; pEC50 ([2]; Homo sapiens, Monocyte): 7.25 |
| CC(C)(O)[C@H](F)CNC(=O)c1cnc(-c2ccc3cc(C#N)cnn23)cc1N[C@H]1CCC(=O)NC1 [Example 368, 6-(3-cyanopyrrolo[1,2-b]pyridazin-7-yl)-N-((R)-2-fluoro-3-hydroxy-3-methylbutyl)-4-(((S)-6-oxopiperidin-3-yl)amino)nicotinamide] | 8.30 | 5.54 | – | – |
| CC(C)(O)[C@H](F)CNC(=O)c1cnc(-c2ccc3cc(C#N)cnn23)cc1Nc1ccc2c(C#N)c[nH]c2c1 [Example 571, (R)-4-((3-cyano-1H-indol-6-yl)amino)-6-(3-cyano-pyrrolo[1,2-b]pyridazin-7-yl)-N-(2-fluoro-3-hydroxy-3-methylbutyl)nicotinamide] | – | 7.92 | > 9.00 | – |
| CC(C)(O)[C@H](F)CNC(=O)c1cnc(-c2ccc3cc(C#N)cnn23)cc1N[C@@H]1CCC[C@H](O)C1 [Example 65, 6-(3-cyanopyrrolo[1,2-b]pyridazin-7-yl)-N-((R)-2-fluoro-3-hydroxy-3-methylbutyl)-4-(((1R,3S)-3-hydroxycyclohexyl)amino) nicotinamide] | 8.70 | 6.83 | – | – |
| CC(C)(F)CNC(=O)c1cnc(-c2ccc3cc(C#N)cnn23)cc1NC12CCC(O)(CC1)CC2 [Example 740, 6-(3-cyanopyrrolo[1,2-b]pyridazin-7-yl)-N-(2-fluoro-2-methylpropyl)-4-((4-hydroxybicyclo[2.2.2]octan-1-yl)amino) nicotinamide] | – | 6.58 | 8.40 | – |
| CC(C)(O)[C@H](F)CNC(=O)c1cnc(-c2ccc3cc(C#N)cnn23)cc1Nc1cnn([C@H]2CCNC2)c1 [Example 223, 6-(3-cyanopyrrolo[1,2-b]pyridazin-7-yl)-N-((R)-2-fluoro-3-hydroxy-3-methylbutyl)-4-((1-((S)-pyrrolidin-3-yl)-1H-pyrazol-4-yl)amino) nicotinamide] | > 9.00 | 7.89 | – | – |
| CC(C)(F)[C@H](F)CNC(=O)c1cnc(-c2ccc3cc(C#N)cnn23)cc1NC12CCC(O)(CC1)CC2 [Example 353, (R)-6-(3-cyanopyrrolo[1,2-b]pyridazin-7-yl)-N-(2,3-difluoro-3-methylbutyl)-4-((4-hydroxybicyclo[2.2.2]octan-1-yl)amino) nicotinamide] | > 9.00 | 7.80 | – | – |
| COC(=O)NC[C@H]1CC[C@H](Nc2cc(-c3ccc4cc(C#N)cnn34)ncc2C(=O)NC[C@@H](F)C(C)(C)O)CC1 [Example 556, methyl (((1R,4r)-4-((2-(3-cyanopyrrolo[1,2-b]pyridazin-7-yl)-5-(((R)-2-fluoro-3-hydroxy-3-methylbutyl)carbamoyl)pyridin-4-yl)amino)cyclo-hexyl)methyl)carbamate] | – | 7.74 | 9.00 | – |
| CNC(=O)CNC(=O)c1cnc(-c2ccc3cc(C#N)cnn23)cc1NC12CCC(O)(CC1)CC2 [Example 334, 6-(3-cyanopyrrolo[1,2-b]pyridazin-7-yl)-4-((4-hydroxybicyclo[2.2.2]octan-1-yl)amino)-N-(2-(methylamino)-2-oxoethyl)nicotinamide] | > 9.00 | 6.53 | – | – |
| CC(C)(O)[C@H](F)CNC(=O)c1cnc(-c2ccc3cc(C#N)cnn23)cc1Nc1nnc(N2CCOCC2)o1 [Example 144, (R)-6-(3-cyanopyrrolo[1,2-b]pyridazin-7-yl)-N-(2-fluoro-3-hydroxy-3-methylbutyl)-4-((5-morpholino-1,3,4-oxadiazol-2-yl)amino) nicotinamide] | 6.18 | < 5.00 | – | – |
| CC(=O)NC12CCC(Nc3cc(-c4ccc5cc(C#N)cnn45)ncc3C(=O)NCC#N)(CC1)CC2 [Example 476, 4-((4-acetamido-bicyclo[2.2.2]octan-1-yl)amino)-N-(cyano-methyl)-6-(3-cyano-pyrrolo[1,2-b]pyridazin-7-yl)nicotinamide] | – | 7.57 | > 9.00 | – |
| COC(=O)NC1CC2(C1)CC(Nc1cc(-c3ccc4cc(C#N)cnn34)ncc1C(=O)NC[C@@H](F)C(C)(C)O)C2 (single isomer, unassigned) [Example 757] | – | – | > 9.00 | pEC50 ([2]; LPS-stimulated human monocytes, TNFα content): 7.92 |
| COC(=O)NC[C@H]1C[C@H](Nc2cc(-c3ccc4cc(C#N)cnn34)ncc2C(=O)NC[C@@H](F)C(C)(C)O)C1 [Example 545, Methyl (((1R,3r)-3-((2-(3-cyanopyrrolo[1,2-b]pyridazin-7-yl)-5-(((R)-2-fluoro-3-hydroxy-3-methylbutyl)carbamoyl)pyridin-4-yl)amino)cyclobutyl)methyl)carbamate] | – | 8.30 | > 9.00 | – |
| CC(C)(O)[C@H](F)CNC(=O)c1cnc(-c2ccc3cc(C#N)cnn23)cc1N[C@H]1C[C@H](CNC(=O)C2CC(F)(F)C2)C1 [Example 940, 6-(3-cyanopyrrolo[1,2-b]pyridazin-7-yl)-4-(((1r,3R)-3-((3,3-difluorocyclobutane-1-carboxamido)methyl)cyclobutyl)amino)-N-((R)-2-fluoro-3-hydroxy-3-methylbutyl)nicotinamide] | > 9.00 | – | – | pEC50 [2, 6]: 7.36 |
| COC(=O)N[C@]1(C)CC[C@@H](Nc2cc(-c3ccc4cc(C#N)cnn34)ncc2C(=O)NC[C@@H](F)C(C)(C)O)CC1 [Example 618, methyl ((1R,4r)-4-((2-(3-cyanopyrrolo[1,2-b]pyridazin-7-yl)-5-(((R)-2-fluoro-3-hydroxy-3-methylbutyl)carbamoyl)pyridin-4-yl)amino)-1-methylcyclohexyl) carbamate] | – | 6.47 | 8.40 | – |
| CC(C)(O)[C@H](F)CNC(=O)c1cnc(-c2ccc3cc(C#N)cnn23)cc1Nc1nc(Cc2ccccc2)ns1 [Example 335, (R)-4-((3-benzyl-1,2,4-thiadiazol-5-yl)amino)-6-(3-cyanopyrrolo[1,2-b]pyridazin-7-yl)-N-(2-fluoro-3-hydroxy-3-methylbutyl)nicotinamide] | 8.52 | 7.00 | – | – |
| CNC(=O)c1cnc(-c2ccc3cc(C#N)cnn23)cc1NC1CCC(NC(=O)C(F)(F)F)CC1 (centres unmarked) [Example 275, 6-(3-cyanopyrrolo[1,2-b]pyridazin-7-yl)-N-methyl-4-(((1r,4r)-4-(2,2,2-trifluoroacetamido)cyclohexyl)amino) nicotinamide] | 8.52 | 6.81 | – | – |
| N#Cc1cnn2c(-c3cc(NC45CCC(O)(CC4)CC5)c(C(=O)N[C@H]4CCCNC4=O)cn3)ccc2c1 [Example 957, (S)-6-(3-cyanopyrrolo[1,2-b]pyridazin-7-yl)-4-((4-hydroxybicyclo[2.2.2]octan-1-yl)amino)-N-(2-oxo-piperidin-3-yl)nicotinamide] | > 9.00 | – | – | pEC50 [2, 6]: 6.76 |
| CC(C)(O)[C@H](F)CNC(=O)c1cnc(-c2ccc3cc(C#N)cnn23)cc1N[C@@H]1CC2CN(C(N)=O)C[C@H]2C1 (stereo partly drawn) [Example 238, (3aR,5s,6aS)-5-((2-(3-cyanopyrrolo[1,2-b]pyridazin-7-yl)-5-(((R)-2-fluoro-3-hydroxy-3-methylbutyl)carbamoyl)pyridin-4-yl)amino)hexa-hydrocyclopenta[c]pyrrole-2(1H)-carboxamide] | > 9.00 | 6.65 | – | – |
| CC(C)(O)[C@H](F)CNC(=O)c1cnc(-c2ccc3cc(C#N)cnn23)cc1N[C@H]1C[C@H](COC(=O)NCC(F)F)C1 [Example 736, ((1R,3r)-3-((2-(3-cyano-pyrrolo[1,2-b]pyridazin-7-yl)-5-(((R)-2-fluoro-3-hydroxy-3-methylbutyl)carbamoyl)pyridin-4-yl)amino)cyclobutyl) methyl (2,2-difluoro-ethyl)carbamate] | – | 7.32 | > 9.00 | – |
| N#Cc1cnn2c(-c3cc(NC4COC4)c(C(=O)N[C@H]4CC[C@H](NC(=O)C5CC5)CC4)cn3)ccc2c1 [Example 526, 6-(3-cyanopyrrolo[1,2-b]pyridazin-7-yl)-N-((1r,4r)-4-(cyclopropane-carboxamido)cyclohexyl)-4-(oxetan-3-ylamino) nicotinamide] | – | 7.00 | 9.00 | – |
| CC(C)(O)[C@H](F)CNC(=O)c1cnc(-c2ccc3cc(C#N)cnn23)cc1NC[C@H]1CCC(=O)N1 [Example 106, 6-(3-cyanopyrrolo[1,2-b]pyridazin-7-yl)-N-((R)-2-fluoro-3-hydroxy-3-methylbutyl)-4-((((R)-5-oxopyrrolidin-2-yl)methyl)amino) nicotinamide] | 8.52 | 5.86 | – | – |
| CC(C)(O)[C@H](F)CNC(=O)c1cnc(-c2ccc3cc(C#N)cnn23)cc1N[C@H]1CC[C@](C)(O)CC1 [Example 445, 6-(3-cyanopyrrolo[1,2-b]pyridazin-7-yl)-N-((R)-2-fluoro-3-hydroxy-3-methylbutyl)-4-(((1r,4R)-4-hydroxy-4-methylcyclo-hexyl)amino)nicotinamide] | – | 7.23 | 9.00 | – |
| CC(C)(O)[C@H](F)CNC(=O)c1cnc(-c2ccc3cc(C#N)cnn23)cc1N[C@H]1CC[C@H](N2CCC(F)(F)C2)CC1 [Example 723, 6-(3-cyanopyrrolo[1,2-b]pyridazin-7-yl)-4-(((1r,4R)-4-(3,3-difluoropyrrolidin-1-yl)cyclohexyl)amino)-N-((R)-2-fluoro-3-hydroxy-3-methylbutyl)nicotinamide] | – | 6.10 | 8.15 | – |
| C#CCNC(=O)c1cnc(-c2ccc3cc(C#N)cnn23)cc1NC12CCC(O)(CC1)CC2 [Example 623, 6-(3-cyanopyrrolo[1,2-b]pyridazin-7-yl)-4-((4-hydroxybicyclo[2.2.2]octan-1-yl)amino)-N-(prop-2-yn-1-yl) nicotinamide] | – | 7.20 | > 9.00 | – |
